Reference: patent publication US20120138290A1, “METHODS TO STIMULATE BIOGENIC METHANE PRODUCTION FROM HYDROCARBON-BEARING FORMATIONS” (SYNTHETIC GENOMICS, INC., priority 2010, published 2012)
Several values for one entry are separate records, joined by “and”; a condition that tells them apart may be missing. Equal entries are not always repeated.

Key:
[1] = test system: formate-utilizing, methane-producing species in the enrichment culture; assay: Stimulation of methane production by vanadium in cultures utilizing formate; type: cell-based; settings: for Methane (% in head space volume of 21 ml): DM media with 50 mM formate, 48 hours at 50° C., replicate cultures
Method: The anaerobic reactor system described above in Example 1 contains formate-utilizing, methane-producing species in the enrichment culture. Methanogens in the culture were previously identified by 16sRNA sequencing.
A 10% vol./vol. inoculum was taken from the anaerobic reactor system described above in Example 1, and the effect of vanadium on methane production by methanogens utilizing formate as a carbon and energy source was determined.
Cultures, established with DM media (prepared as described above) containing 50 mM formate as the sole carbon and energy source, were sub-cultured with the same media (in the absence of vanadium) or media supplemented with either 5 or 10 μM VCl3. Methane production was measured after 48 hours of growth at 50° C.

[2] = test system: functional microbial subcommunity (inoculum 2L-245 from upflow reactor); assay: Stimulation of methane production: batch cultures with additive/stimulant, with or without coal, headspace methane by gas chromatography; type: cell-based
Method: The availability of an inoculum of a functional microbial subcommunity capable of producing methane from coal in vitro prompted laboratory experiments where various stimulants were tested for their effect on methane production. […] The experiments were conducted at three different levels of additives (0.5×, 1× and 2×): additives (stimulants) were added in the following three concentrations. […] DMY media: DM media composition in milli-Q water is made as described above with the addition of 0.5 g/L yeast extract. DMSC media: DM media in milli-Q water is made as described above with the addition of 100 g/L sterile, anaerobic, sub-bituminous coal from the San Juan Basin. DMSCY media: DM media in milli-Q water is made as described above with the addition of 100 g/L sterile, anaerobic, sub-bituminous coal from the San Juan Basin and 0.5 g/L yeast extract. The coal used in these experiments originated from the San Juan Basin (BHP Billiton, Tex.). […] Each stimulant was tested in the presence or absence of coal. The experiments were conducted at three different concentrations of additives (0.5× (low), 1× (medium), and 2× (high)) as described above. Each sample type was conducted in 4 replicates. […] Control sample types were media alone, media plus coal, media plus yeast extract and media plus coal and yeast extract. At each time point, headspace measurements were taken using gas chromatography (microGC […], Agilent Technologies, Inc.). […] Each experiment was performed in quadruplicate. Methane at time 0 was assumed to be 0%.

[3] = DMSCY (coal), 5 μM VCl3, week 1
[4] = DMSCY (coal), 5 μM VCl3, week 3
[5] = DMSCY (coal), 5 μM VCl3, week 5
[6] = DMSCY (coal), 10 μM VCl3, week 1
[7] = DMSCY (coal), 10 μM VCl3, week 3
[8] = DMSCY (coal), 10 μM VCl3, week 5
[9] = DMY (no coal), 5 μM VCl3, week 1
[10] = DMY (no coal), 5 μM VCl3, week 3
[11] = DMY (no coal), 5 μM VCl3, week 5
[12] = DMY (no coal), 10 μM VCl3, week 1
[13] = DMY (no coal), 10 μM VCl3, week 3
[14] = DMY (no coal), 10 μM VCl3, week 5
[15] = DMSCY (coal), 125 μM Na2SO3, week 1
[16] = DMSCY (coal), 125 μM Na2SO3, week 3
[17] = DMSCY (coal), 125 μM Na2SO3, week 5
[18] = DMSCY (coal), 250 μM Na2SO3, week 1
[19] = DMSCY (coal), 250 μM Na2SO3, week 3
[20] = DMSCY (coal), 250 μM Na2SO3, week 5
[21] = DMSCY (coal), 500 μM Na2SO3, week 1
[22] = DMSCY (coal), 500 μM Na2SO3, week 3
[23] = DMSCY (coal), 500 μM Na2SO3, week 5
[24] = DMY (no coal), 125 μM Na2SO3, week 1
[25] = DMY (no coal), 125 μM Na2SO3, week 3
[26] = DMY (no coal), 125 μM Na2SO3, week 5
[27] = DMY (no coal), 250 μM Na2SO3, week 1
[28] = DMY (no coal), 250 μM Na2SO3, week 3
[29] = DMY (no coal), 250 μM Na2SO3, week 5
[30] = DMY (no coal), 500 μM Na2SO3, week 1
[31] = DMY (no coal), 500 μM Na2SO3, week 3
[32] = DMY (no coal), 500 μM Na2SO3, week 5
[33] = DMSCY (coal), 5.0 μM Na2MoO4, week 1
[34] = DMSCY (coal), 5.0 μM Na2MoO4, week 3
[35] = DMSCY (coal), 5.0 μM Na2MoO4, week 5
[36] = DMSCY (coal), 10 μM Na2MoO4, week 1
[37] = DMSCY (coal), 10 μM Na2MoO4, week 3
[38] = DMSCY (coal), 10 μM Na2MoO4, week 5
[39] = DMY (no coal), 5.0 μM Na2MoO4, week 1
[40] = DMY (no coal), 5.0 μM Na2MoO4, week 3
[41] = DMY (no coal), 5.0 μM Na2MoO4, week 5
[42] = DMY (no coal), 10 μM Na2MoO4, week 1
[43] = DMY (no coal), 10 μM Na2MoO4, week 3
[44] = DMY (no coal), 10 μM Na2MoO4, week 5

[Cl-].[Cl-].[Cl-].[V+3] [VCl3, vanadium (III) chloride]
Methane (% in head space volume of 21 ml) ([1]; 5 μM VCl3 final): 2.0% and 1.2%
Methane (% in head space volume of 21 ml) ([1]; 10 μM VCl3 final): 1.9% and 1.4%
methane formation relative to cultures without VCl3 (average) ([1]; VCl3-supplemented cultures (5 or 10 μM), 50 mM formate, 48 hours): approximately 2 fold
methane production (Average) [2, 3]: 0.27
methane production (RepA-Rep D) [2, 3]: 0.30 and 0.26 and 0.25
methane production (Average) [2, 4]: 1.50
methane production (RepA-Rep D) [2, 4]: 1.51 and 1.40 and 1.21 and 1.88
methane production (Average) [2, 5]: 2.44
methane production (RepA-Rep D) [2, 5]: 2.41 and 2.28 and 1.95 and 3.13
methane production (Average) [2, 6]: 0.25
methane production (RepA-Rep D) [2, 6]: 0.29 and 0.25 and 0.24
methane production (Average) [2, 7]: 1.06
methane production (RepA-Rep D) [2, 7]: 1.15 and 1.04 and 1.01
methane production (Average) [2, 8]: 1.36
methane production (RepA-Rep D) [2, 8]: 1.49 and 1.31 and 1.30 and 1.33
methane production (Average) [2, 9]: 0.20
methane production (RepA-Rep D) [2, 9]: 0.21 and 0.20
methane production (Average) [2, 10]: 0.71
methane production (RepA-Rep D) [2, 10]: 0.78 and 0.69 and 0.67 and 0.80
methane production (Average) [2, 11]: 0.70
methane production (RepA-Rep D) [2, 11]: 0.75 and 0.70 and 0.68 and 0.67
methane production (Average) [2, 12]: 0.22
methane production (RepA-Rep D) [2, 12]: 0.21 and 0.251 and 0.19 and 0.22
methane production (Average) [2, 13]: 0.77
methane production (RepA-Rep D) [2, 13]: 0.85 and 0.7495 and 0.70 and 0.78
methane production (Average) [2, 14]: 0.76
methane production (RepA-Rep D) [2, 14]: 0.76 and 0.82 and 0.70 and 0.77
effect on the production of methane ([2]; intermediate concentration of the stimulant (FIGS. 1A, 1B, 2A)): statistically significant positive effect
dependence of methane production on coal ([2]; with or without coal): only observed in the presence of coal

O=S([O-])[O-].[Na+].[Na+] [Na2SO3, sodium sulfite]
methane production (Average) [2, 15]: 0.27
methane production (RepA-Rep D) [2, 15]: 0.26 and 0.24 and 0.25 and 0.32
methane production (Average) [2, 16]: 1.02
methane production (RepA-Rep D) [2, 16]: 1.04 and 0.97 and 0.99 and 1.06
methane production (Average) [2, 17]: 1.25
methane production (RepA-Rep D) [2, 17]: 1.21 and 1.22 and 1.25 and 1.31
methane production (Average) [2, 18]: 20
methane production (RepA-Rep D) [2, 18]: 0.23 and 0.18 and 0.19 and 0.20
methane production (Average) [2, 19]: 1.07
methane production (RepA-Rep D) [2, 19]: 1.04 and 1.02 and 1.06 and 1.18
methane production (Average) [2, 20]: 1.42
methane production (RepA-Rep D) [2, 20]: 1.26 and 1.24 and 1.45 and 1.74
methane production (Average) [2, 21]: 0.14
methane production (RepA-Rep D) [2, 21]: 0.14 and 0.13 and 0.15
methane production (Average) [2, 22]: 1.04
methane production (RepA-Rep D) [2, 22]: 1.01 and 0.98 and 1.07 and 1.04
methane production (Average) [2, 23]: 1.35
methane production (RepA-Rep D) [2, 23]: 1.34 and 1.26 and 1.37 and 1.41
methane production (Average) [2, 24]: 0.21
methane production (RepA-Rep D) [2, 24]: 0.20 and 0.21 and 0.22
methane production (Average) [2, 25]: 0.71
methane production (RepA-Rep D) [2, 25]: 0.71 and 0.68 and 0.69 and 0.75
methane production (Average) [2, 26]: 0.68
methane production (RepA-Rep D) [2, 26]: 0.66 and 0.69 and 0.71
methane production (Average) [2, 27]: 0.14
methane production (RepA-Rep D) [2, 27]: 0.14 and 0.15 and 0.13
methane production (Average) [2, 28]: 0.67
methane production (RepA-Rep D) [2, 28]: 0.67 and 0.63 and 0.65 and 0.72
methane production (Average) [2, 29]: 0.62
methane production (RepA-Rep D) [2, 29]: 0.62 and 0.59 and 0.65
methane production (Average) [2, 30]: 0.09
methane production (RepA-Rep D) [2, 30]: 0.09 and 0.08 and 0.10
methane production (Average) [2, 31]: 0.68
methane production (RepA-Rep D) [2, 31]: 0.71 and 0.64 and 0.74
methane production (Average) [2, 32]: 0.74
methane production (RepA-Rep D) [2, 32]: 0.83 and 0.68 and 0.76

[Na+].[Na+].[O]=[Mo](=[O])([O-])[O-] [Na2MoO4, sodium molybdic]
methane production (Average) [2, 33]: 0.34
methane production (RepA-Rep D) [2, 33]: 0.39 and 0.28 and 0.31
methane production (Average) [2, 34]: 1.19
methane production (RepA-Rep D) [2, 34]: 1.13 and 1.09 and 1.14 and 1.40
methane production (Average) [2, 35]: 1.41
methane production (RepA-Rep D) [2, 35]: 1.39 and 1.31 and 1.29 and 1.63
methane production (Average) [2, 36]: 0.44
methane production (RepA-Rep D) [2, 36]: 0.43 and 0.47 and 0.44
methane production (Average) [2, 37]: 1.10
methane production (RepA-Rep D) [2, 37]: 1.03 and 1.15 and 1.14 and 1.07
methane production (Average) [2, 38]: 1.13
methane production (RepA-Rep D) [2, 38]: 1.11 and 1.14 and 1.15 and 1.13
methane production (Average) [2, 39]: 0.29
methane production (RepA-Rep D) [2, 39]: 0.25 and 0.27 and 0.30 and 0.33
methane production (Average) [2, 40]: 0.83
methane production (RepA-Rep D) [2, 40]: 0.77 and 0.85 and 0.79 and 0.91
methane production (Average) [2, 41]: 0.79
methane production (RepA-Rep D) [2, 41]: 0.76 and 0.78 and 0.74 and 0.87
methane production (Average) [2, 42]: 0.29
methane production (RepA-Rep D) [2, 42]: 0.30 and 0.26 and 0.32
methane production (Average) [2, 43]: 0.82
methane production (RepA-Rep D) [2, 43]: 0.85 and 0.71 and 0.81 and 0.90
methane production (Average) [2, 44]: 0.77
methane production (RepA-Rep D) [2, 44]: 0.77 and 0.72 and 0.74 and 0.83
correlation of methane production with molybdate added to the cultures ([2]; FIG. 3B): negative correlation
difference of effects with or without coal ([2]; molybdate, P=0.063): not statistically significantly different
